Columns and labels:
Format in all cases: physicochemical
[1] = BET surface area measurement (nitrogen adsorption at 77 K); conditions: nitrogen adsorbate, PSA:GF ratio based on mass charged to crystallizer
Protocol: A Quantachrome Autosorb-IC (Boynton Beach, Fla.) was used to measure surface areas of the samples at 77 K. A known amount of powder (typically 500 mg) was loaded into a Quantachrome powder cell and outgassed for about 1 hr. Nitrogen was used as the adsorbate, and the equations derived by Brunauer, Emmett, and Teller (BET) were used by the software provided with the instrument to calculate the specific surface areas.

[2] = Powder flow properties: bulk density, tapped density, compressibility (modified USP procedure); conditions: for Percent Compressibility: computed from bulk density and tapped density (equation 3)
Protocol: Bulk densities of selected samples were measured using a modified USP procedure. A mass of sample (M), typically 0.5 g, was passed through a No. 18 test sieve (ASTM USA Standard Test Sieve, Fischer Scientific) into a tared 10 mL graduated cylinder. The powder was carefully leveled and the unsettled apparent volume (Vo) was read to the nearest 0.05 mL. The bulk density (ρb) was then calculated using equation 1: [formula] Each bulk density measurement was performed in triplicate, and the average value was reported. Tapped densities of selected samples were also obtained using a modified USP procedure. After the bulk density had been determined from the procedure described above, the graduate cylinder was mechanically tapped by raising the cylinder and allowing it to drop under its own weight using an apparatus that provided a fixed drop height of 14±2 mm. The nominal tap rate was 60 drops per minute. The cylinder was initially tapped 500 times and the tapped volume (VT) was read to the nearest 0.05 mL. The procedure was then repeated, in increments of 500 taps, until the difference between succeeding measurements was less than 2%. The tapped density (ρt) was then calculated using equation 2: [formula] Each tapped density measurement was performed in triplicate, and the average values for each sample is reported. Powder compressibility was computed from the bulk density and tapped density using equation 3: [formula] Determination of Griseofulvin Content in the Powder Samples
Powder flow properties, as represented by the bulk density, tapped density, and percent compressibility, were determined for selected samples and are shown in Table 2.0, in which GF is griseofluvin and the PSA:GF ratio was based on the original mass charged to the crystallizer. Absent values from the table indicate inadequate sample volume for the measurement technique.

[3] = Short term stability study at ICH conditions, characterised by XRPD
Protocol: A short term stability study was conducted at two International Conference on Harmonization (ICH) stability conditions, i.e. 25° C./60% relative humidity and 40° C./75% relative humidity. A thin layer of powder was placed in a 20 mL capped glass scintillation vial, and the vials were placed in a sealed desicator that was set to either 25 or 40° C., and to the desired relative humidity over the appropriate saturated salt solution^32. Relative humidities of 60% and 75% were obtained using sodium bromide or sodium chloride, respectively. After initial storage (4 days), the samples were removed and characterized by XRPD. The samples were then returned to appropriate desicator and stored for another 19 days with the caps removed. Final sample characterization was by SEM and XRPD.

BET-Surface Area [1]: 2.98 m^2/g
Bulk Density ([2]; average of triplicate): 0.2 ± 0.02 g/mL
Tapped Density ([2]; average of triplicate, tapped in increments of 500 taps): 0.4 ± 0.02 g/mL
Percent Compressibility [2]: 49 +/− 3%
Percent Compressibility ([2]; listed as bulk griseofulvin): 49±3%
XRPD diffraction pattern after storage (phase change) ([3]; stored for 23 days at 25° C./60% RH): No new peaks
XRPD diffraction pattern after storage (phase change) ([3]; stored for 23 days at 40° C./75% RH): No new peaks
Structure (SMILES): COC1=CC(=O)C[C@@H](C)[C@]12Oc1c(Cl)c(OC)cc(OC)c1C2=O [Bulk GF, griseofulvin]

Reference: patent US20060078573A1, “Methods of modifying crystal habit” (priority 2004, published 2006)
